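All cell lines were grown in 96-well plates and treated with compound for 48 hours. GI50 is the concentration that inhibits growth by half. The concentration for full growth arrest is given as TGI.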
Columns and labels:
Experiment in all cases: NCI tumour cell line growth inhibition, 48 h
[1] = tested on: HL-60(TB) leukemia
[2] = tested on: HCT-116 colon
[3] = tested on: HT29 colon
[4] = tested on: RPMI-8226 leukemia
[5] = tested on: SF-295 CNS
[6] = tested on: NCI-H226 lung
[7] = tested on: NCI-H522 lung
[8] = tested on: A498 renal
[9] = tested on: SK-OV-3 ovarian
[10] = tested on: MOLT-4 leukemia
[11] = tested on: SF-268 CNS
[12] = tested on: HCT-15 colon
[13] = tested on: U251 CNS
[14] = tested on: ACHN renal
[15] = tested on: OVCAR-8 ovarian
[16] = tested on: OVCAR-4 ovarian
[17] = tested on: MCF7 breast
[18] = tested on: T-47D breast
[19] = tested on: K-562 leukemia
[20] = tested on: PC-3 prostate
[21] = tested on: CCRF-CEM leukemia
[22] = tested on: OVCAR-5 ovarian
[23] = tested on: KM12 colon
[24] = tested on: SK-MEL-28 melanoma
[25] = tested on: MALME-3M melanoma
[26] = tested on: MDA-MB-435
[27] = tested on: NCI/ADR-RES ovarian
[28] = tested on: SNB-75 CNS
[29] = tested on: NCI-H460 lung
[30] = tested on: SF-539 CNS
[31] = tested on: BT-549 breast
[32] = tested on: SK-MEL-5 melanoma
[33] = tested on: TK-10 renal
[34] = tested on: LOX IMVI melanoma
[35] = tested on: SR leukemia
[36] = tested on: MDA-MB-231 breast
[37] = tested on: HOP-92 NSCLC
[38] = tested on: HCC-2998 colon
[39] = tested on: M14 melanoma
[40] = tested on: UO-31 renal
[41] = tested on: SK-MEL-2 melanoma
[42] = tested on: SN12C renal
[43] = tested on: IGROV1 ovarian
[44] = tested on: DU-145 prostate
[45] = tested on: COLO 205 colon
[46] = tested on: CAKI-1 renal
[47] = tested on: NCI-H23 lung
[48] = tested on: OVCAR-3 ovarian
[49] = tested on: A549 NSCLC
[50] = tested on: HS 578T breast
[51] = tested on: SW-620 colon
[52] = tested on: UACC-257 melanoma
[53] = tested on: SNB-19 CNS
[54] = tested on: 786-0 renal
[55] = tested on: HOP-62 NSCLC
[56] = tested on: UACC-62 melanoma
[57] = tested on: RXF 393 renal
[58] = tested on: EKVX NSCLC

Cc1cccc2c(C3=C(c4cn(C)c5ccccc45)C(=O)NC3=O)cn(C)c12
GI50 [1]: > 25 µM
TGI [1]: > 25 µM
GI50 [2]: > 15.8 µM
TGI [2]: > 25 µM
GI50 [3]: > 13.8 µM
TGI [3]: > 25 µM
GI50 [4]: > 18.6 µM
TGI [4]: > 25 µM
GI50 [5]: > 24 µM
TGI [5]: > 25 µM
GI50 [6]: > 25 µM
TGI [6]: > 25 µM
GI50 [7]: > 17 µM
TGI [7]: > 25 µM
GI50 [8]: > 25 µM
TGI [8]: > 25 µM
GI50 [9]: > 22.5 µM
TGI [9]: > 25 µM
GI50 [10]: > 25 µM
TGI [10]: > 25 µM
GI50 [11]: 13.6 µM
TGI [11]: > 25 µM
GI50 [12]: 11.5 µM
TGI [12]: > 25 µM
GI50 [13]: > 25 µM
TGI [13]: > 25 µM
GI50 [14]: 13.1 µM
TGI [14]: > 25 µM
GI50 [15]: 12.2 µM
TGI [15]: > 25 µM
GI50 [16]: 6.64 µM
TGI [16]: > 23.1 µM
GI50 [17]: 9.03 µM
TGI [17]: > 25 µM
GI50 [18]: > 20 µM
TGI [18]: > 25 µM
GI50 [19]: > 19.7 µM
TGI [19]: > 25 µM
GI50 [20]: 18.9 µM
TGI [20]: > 25 µM
GI50 [21]: > 18 µM
TGI [21]: > 25 µM
GI50 [22]: > 25 µM
TGI [22]: > 25 µM
GI50 [23]: > 20.8 µM
TGI [23]: > 25 µM
GI50 [24]: 17.5 µM
TGI [24]: > 25 µM
GI50 [25]: > 17.8 µM
TGI [25]: > 25 µM
GI50 [26]: 1.24 µM
TGI [26]: > 25 µM
GI50 [27]: > 19.6 µM
TGI [27]: > 25 µM
GI50 [28]: 1.15 µM
TGI [28]: > 25 µM
GI50 [29]: > 21.8 µM
TGI [29]: > 25 µM
GI50 [30]: 19.1 µM
TGI [30]: > 25 µM
GI50 [31]: 12.7 µM
TGI [31]: > 25 µM
GI50 [32]: > 22.2 µM
TGI [32]: > 25 µM
GI50 [33]: > 25 µM
TGI [33]: > 25 µM
GI50 [34]: > 22 µM
TGI [34]: > 25 µM
GI50 [35]: 4.88 µM
TGI [35]: > 25 µM
GI50 [36]: > 19.6 µM
TGI [36]: > 25 µM
GI50 [37]: 9.91 µM
TGI [37]: > 25 µM
GI50 [38]: > 25 µM
TGI [38]: > 25 µM
GI50 [39]: > 25 µM
TGI [39]: > 25 µM
GI50 [40]: > 21.5 µM
TGI [40]: > 25 µM
GI50 [41]: 24.3 µM
TGI [41]: > 25 µM
GI50 [42]: > 25 µM
TGI [42]: > 25 µM
GI50 [43]: 25 µM
TGI [43]: > 25 µM
GI50 [44]: > 25 µM
TGI [44]: > 25 µM
GI50 [45]: > 16.9 µM
TGI [45]: > 25 µM
GI50 [46]: > 19.1 µM
TGI [46]: > 25 µM
GI50 [47]: > 25 µM
TGI [47]: > 25 µM
GI50 [48]: 9.33 µM
TGI [48]: > 25 µM
GI50 [49]: > 25 µM
TGI [49]: > 25 µM
GI50 [50]: 2.83 µM
TGI [50]: 17.3 µM
GI50 [51]: 12.7 µM
TGI [51]: > 25 µM
GI50 [52]: 24.8 µM
TGI [52]: > 25 µM
GI50 [53]: > 25 µM
TGI [53]: > 25 µM
GI50 [54]: > 22.1 µM
TGI [54]: > 25 µM
GI50 [55]: 13.4 µM
TGI [55]: > 25 µM
GI50 [56]: > 25 µM
TGI [56]: > 25 µM
GI50 [57]: 6.16 µM
TGI [57]: 24.4 µM

CN(C)c1ccc(/C=C/C(=O)c2ccc(Nc3nc(Nc4ccc(F)cc4)nc(Nc4ccc(F)cc4)n3)cc2)cc1
GI50 [1]: 12.2 µM
TGI [1]: > 100 µM
GI50 [2]: 11.4 µM
TGI [2]: 32.4 µM
GI50 [3]: 15.5 µM
TGI [3]: 66.6 µM
GI50 [4]: 7.62 µM
TGI [4]: > 100 µM
GI50 [5]: 15 µM
TGI [5]: 41.3 µM
GI50 [6]: 23.4 µM
TGI [6]: 78.8 µM
GI50 [7]: 16.2 µM
TGI [7]: 58.4 µM
GI50 [8]: 13 µM
TGI [8]: 30.8 µM
GI50 [9]: 14.7 µM
TGI [9]: 55.7 µM
GI50 [10]: 6.48 µM
TGI [10]: 63 µM
GI50 [58]: 19.9 µM
TGI [58]: 83 µM
GI50 [11]: 24.9 µM
TGI [11]: > 100 µM
GI50 [12]: 19.4 µM
TGI [12]: > 100 µM
GI50 [13]: 17.2 µM
TGI [13]: 55.1 µM
GI50 [14]: 27.4 µM
TGI [14]: > 100 µM
GI50 [15]: 11.6 µM
TGI [15]: 40.3 µM
GI50 [16]: 15 µM
TGI [16]: 53.4 µM
GI50 [17]: 17.6 µM
TGI [17]: > 100 µM
GI50 [18]: 6.73 µM
TGI [18]: 51.7 µM
GI50 [19]: 12.7 µM
TGI [19]: > 100 µM
GI50 [20]: 6.56 µM
TGI [20]: 80.2 µM
GI50 [21]: 5.61 µM
TGI [21]: > 100 µM
GI50 [22]: 34.4 µM
TGI [22]: > 100 µM
GI50 [23]: 19 µM
TGI [23]: 75.2 µM
GI50 [24]: 17 µM
TGI [24]: 75.5 µM
GI50 [25]: 19.1 µM
TGI [25]: 78.9 µM
GI50 [26]: 3.49 µM
TGI [26]: 25.4 µM
GI50 [27]: 4.39 µM
TGI [27]: 30.7 µM
GI50 [28]: 13.8 µM
TGI [28]: 39 µM
GI50 [29]: 22 µM
TGI [29]: > 100 µM
GI50 [30]: 19 µM
TGI [30]: 44.6 µM
GI50 [31]: 13.5 µM
TGI [31]: 43.6 µM
GI50 [32]: 7.65 µM
TGI [32]: 23.9 µM
GI50 [33]: 28.7 µM
TGI [33]: > 100 µM
GI50 [34]: 19 µM
TGI [34]: 50.7 µM
GI50 [35]: 7.12 µM
TGI [35]: > 100 µM
GI50 [36]: 13.5 µM
TGI [36]: 46.4 µM
GI50 [37]: 4.94 µM
TGI [37]: 24 µM
GI50 [38]: 11 µM
TGI [38]: 32.5 µM
GI50 [39]: 11.2 µM
TGI [39]: 34.6 µM
GI50 [40]: 15.2 µM
TGI [40]: 40.4 µM
GI50 [41]: 14.2 µM
TGI [41]: 52.5 µM
GI50 [42]: 43 µM
TGI [42]: > 100 µM
GI50 [43]: 16.7 µM
TGI [43]: 45 µM
GI50 [44]: 25.1 µM
TGI [44]: 91.6 µM
GI50 [45]: 5.16 µM
TGI [45]: 24.8 µM
GI50 [46]: 21.8 µM
TGI [46]: 63.3 µM
GI50 [47]: 19.6 µM
TGI [47]: 68.6 µM
GI50 [48]: 16.8 µM
TGI [48]: 46 µM
GI50 [49]: 12.8 µM
TGI [49]: 34.2 µM
GI50 [50]: 14.4 µM
TGI [50]: 51.9 µM
GI50 [51]: 18 µM
TGI [51]: 46 µM
GI50 [52]: 22.5 µM
TGI [52]: 90.9 µM
GI50 [53]: 29.6 µM
TGI [53]: > 100 µM
GI50 [54]: 14.9 µM
TGI [54]: 45.8 µM
GI50 [55]: 17.7 µM
TGI [55]: 47.4 µM
GI50 [56]: 27.4 µM
TGI [56]: > 100 µM
GI50 [57]: 7.84 µM
TGI [57]: 26.1 µM

Reference: PubChem BioAssay (NCI)
